Data on three molecules can be found in patent US20260217716A1, “ANDROGEN RECEPTOR MODULATORS AND METHODS FOR THEIR USE” (Capulus Therapeutics, LLC, priority 2022, published 2026).

Data set [1] is described as follows: Human liver microsome stability. It counts as in vitro ADME. The settings on record: Table 6, human liver microsomes, 1 μM. The method, then:
(§1) Preincubation mixture 2.5 μL Test Cpd. +75 μL Liver microsomes (human or mouse source) @ 3.33 mg/mL+85 µL of 100 mM potassium phosphate buffer (preincubate for 10 min @ 37° C.). Incubation mixture 62 μL of cofactor (2.85 mM)+Remaining incubation mixture (Incubated for 60 min @ 37° C.). Sample preparation 25 μL incubation mixture+200 μL of acetonitrile containing internal standard+Vortex 5 min @ 1200 rpm+Centrifuge 10 min @ 4000 rpm. Supernatant diluted 2-fold with water and injected on LC-MS/MS.

The next data set deals with T1, human AR (Homo sapiens, UniProt P10275).
T1 construct: Reporter Cells used in these assays expressed a native receptor (AR)
T1 sequence (P10275 1-920): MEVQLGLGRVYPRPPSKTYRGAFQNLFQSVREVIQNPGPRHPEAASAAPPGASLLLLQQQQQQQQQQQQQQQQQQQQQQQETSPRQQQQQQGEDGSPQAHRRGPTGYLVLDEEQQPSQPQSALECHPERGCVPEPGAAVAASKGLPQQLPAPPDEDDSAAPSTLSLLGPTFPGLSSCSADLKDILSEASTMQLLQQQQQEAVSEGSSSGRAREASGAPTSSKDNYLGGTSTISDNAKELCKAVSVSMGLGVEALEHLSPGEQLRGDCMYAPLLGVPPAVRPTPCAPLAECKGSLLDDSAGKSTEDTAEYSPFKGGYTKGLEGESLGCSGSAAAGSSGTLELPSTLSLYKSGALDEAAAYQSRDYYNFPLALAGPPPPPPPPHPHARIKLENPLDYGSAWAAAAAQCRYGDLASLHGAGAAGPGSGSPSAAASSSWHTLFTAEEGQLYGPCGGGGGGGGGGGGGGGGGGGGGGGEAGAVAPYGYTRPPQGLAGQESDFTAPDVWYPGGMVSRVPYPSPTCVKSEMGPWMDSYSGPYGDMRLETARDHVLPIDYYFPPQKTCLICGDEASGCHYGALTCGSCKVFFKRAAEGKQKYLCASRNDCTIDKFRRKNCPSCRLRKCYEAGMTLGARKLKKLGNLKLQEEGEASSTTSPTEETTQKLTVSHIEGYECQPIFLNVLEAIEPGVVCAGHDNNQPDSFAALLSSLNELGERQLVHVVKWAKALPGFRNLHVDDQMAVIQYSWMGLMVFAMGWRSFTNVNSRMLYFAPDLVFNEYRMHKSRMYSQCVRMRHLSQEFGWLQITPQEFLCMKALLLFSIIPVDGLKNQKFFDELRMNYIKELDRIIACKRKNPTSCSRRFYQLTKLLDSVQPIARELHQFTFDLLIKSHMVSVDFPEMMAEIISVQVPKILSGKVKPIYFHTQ
The data set can be described thus: Indigo Biosciences AR reporter cell assay (AR inhibition, antagonist mode). Format: cell-based. The settings on record: Table 2; luciferase reporter cells, 24 hr, EC80 of agonist 5α-dihydro-11-keto testosterone; read-out: AR Inhibition Indigo Cell Based: Avg IC50. The protocol:
The aim of this study was to evaluate compounds 1-12 and the comparative compounds 1-2 for inhibition activities against human AR. Reporter Cells used in these assays expressed a native receptor (AR). The reporter gene, firefly luciferase, is functionally linked to an upstream receptor-specific genetic response element (GRE). Reporter cells were treated with eight concentrations, starting at 50 μM and following with 3.17-fold dilutions. Single treatment concentration was performed (n=1). Assay performance was validated using the reference antagonist hydroxy flutamide. • Step 1: A suspension of reporter cells was prepared in Cell Recovery Medium (CRM). Reporter cells were first supplemented with 2×-EC80 concentration of the reference agonist, 5α-dihydro-11-keto testosterone, then 100 μl of the Reporter Cell suspension was dispensed into wells of a white 96-well assay plate. • Step 2: Test compound master stocks were diluted in DMSO to generate solutions at ‘500×-concentration’ relative to the final treatment concentration and diluted directly into INDIGO's Compound Screening Medium (CSM; containing charcoal-stripped FBS) to generate ‘2×-concentration’ treatment media. This was diluted into the wells to the final concentration. Assay plates were incubated at 37° C., 5% CO2 and ~70% humidity for 24 hr. • Step 3: Following the incubation period, wells were rinsed once with Live Cell Multiplex (LCM) Buffer, then LCM substrate was added. Following incubation at room temperature for 15 min, LCM substrate was discarded and 100 μL/well of luciferase detection reagent was added. Subsequently, fluorescence was measured to determine the relative number of live cells per assay well. RLU values were quantified after a 10 min incubation period at room temperature to determine nuclear receptor activities.
On the technique in general: In a reporter assay the amount or activity of a reporter protein is the signal.

Data set [2] can be described thus: Mouse liver microsome stability. Format: in vitro ADME. As to conditions: Table 6, mouse liver microsomes, 1 μM. The method, then:
as §1

The next data set deals with T2, Human androgen receptors (Homo sapiens, UniProt P10275, T878A).
T2 construct: Human androgen receptors obtained from human LNCaP cells were used; host or cells: human LNCaP cells
T2 sequence (P10275 1-920 T878A): T1 sequence (P10275 1-920) with T878A
The data set can be described thus: Biochemical AR LBD antagonism (Eurofins AR radioligand binding assay). As to conditions: Table 4; read-out: Biochemical AR LBD Antagonism: Average IC50. The method, then:
Human androgen receptors obtained from human LNCaP cells were used in modified HEPES buffer pH 7.4. A 70 μg‡ aliquot was incubated with 0.5 nM [3H] Methyltrienolone for 20 h at 4° C. Non-specific binding was estimated in the presence of 1 μM testosterone. Receptors were filtered and washed, the filters were then counted to determine [3H] Methyltrienolone specifically bound. Compounds were screened at 10 μM.
Furthermore, as noted earlier, most clinically relevant AR inhibitors target the ligand binding domain (LBD) of the androgen receptor, and these inhibitors can lose efficacy due to point mutations in the LBD. Given that the AR protein contains multiple sub-domains, targeting other domains is an attractive approach for new inhibitors. […] Therefore, the compounds as described herein may be interacting with other subdomains in the AR protein, namely the N-terminal domain.

Molecules are shown by their SMILES. Positions count from the first letter of the chain named.

Broadly, the IC50 is the concentration that gives 50% inhibition. In the case of `C[C@@H](Nc1ccc2nnc(C(F)(F)F)n2n1)c1cc(Cl)cc(Cl)c1` [Compound 8, (R)—N-(1-(3,5-dichlorophenyl)ethyl)-3-(trifluoromethyl)-[1,2,4]triazolo[4,3-b]pyridazin-6-amine], the “Human LM: Rem @ 60 min” value in data set [1] was “+++ (>60.1: “+++”)”. The IC50 at human AR was 51 to 500 nM; at Human androgen receptors, more than 501 nM. In addition, in data set [2], the “Mouse LM: Rem @ 60 min” value is given as “+++ (>60.1: “+++”)”.
Regarding `Cc1nnc2ccc(N[C@H](C)c3ccc(F)cc3)nn12` [Compound 10, (R)—N-(1-(4-fluorophenyl)ethyl)-3-methyl-[1,2,4]triazolo[4,3-b]pyridazin-6-amine], the “Human LM: Rem @ 60 min” value in data set [1] was “+++ (>60.1: “+++”)”. For the same molecule, the figures for the concentration for half-maximal inhibition (IC50) at human AR and at Human androgen receptors were 51 to 500 nM and more than 501 nM, respectively. The “Mouse LM: Rem @ 60 min” value in data set [2] is “+++ (>60.1: “+++”)”.
With `C[C@@H](Nc1ccc2nnc(C(F)F)n2n1)c1ccc(F)cc1` [Compound 12], in data set [1], the “Human LM: Rem @ 60 min” value is given as “+++ (>60.1: “+++”)”. Also, the IC50 at human AR is 51 to 500 nM; at Human androgen receptors, more than 501 nM. The “Mouse LM: Rem @ 60 min” value in data set [2] is “+++ (>60.1: “+++”)”.
